Reference: patent US20260138961A1, “MODULATORS OF MITOCHONDRIAL DNA REPLICATION” (Pretzel Therapeutics, Inc., priority 2022, published 2026)

Target: T1, wild type human POLγ (POLγA:WT) (Homo sapiens, UniProt P54098)
T1 sequence (P54098 1-1239): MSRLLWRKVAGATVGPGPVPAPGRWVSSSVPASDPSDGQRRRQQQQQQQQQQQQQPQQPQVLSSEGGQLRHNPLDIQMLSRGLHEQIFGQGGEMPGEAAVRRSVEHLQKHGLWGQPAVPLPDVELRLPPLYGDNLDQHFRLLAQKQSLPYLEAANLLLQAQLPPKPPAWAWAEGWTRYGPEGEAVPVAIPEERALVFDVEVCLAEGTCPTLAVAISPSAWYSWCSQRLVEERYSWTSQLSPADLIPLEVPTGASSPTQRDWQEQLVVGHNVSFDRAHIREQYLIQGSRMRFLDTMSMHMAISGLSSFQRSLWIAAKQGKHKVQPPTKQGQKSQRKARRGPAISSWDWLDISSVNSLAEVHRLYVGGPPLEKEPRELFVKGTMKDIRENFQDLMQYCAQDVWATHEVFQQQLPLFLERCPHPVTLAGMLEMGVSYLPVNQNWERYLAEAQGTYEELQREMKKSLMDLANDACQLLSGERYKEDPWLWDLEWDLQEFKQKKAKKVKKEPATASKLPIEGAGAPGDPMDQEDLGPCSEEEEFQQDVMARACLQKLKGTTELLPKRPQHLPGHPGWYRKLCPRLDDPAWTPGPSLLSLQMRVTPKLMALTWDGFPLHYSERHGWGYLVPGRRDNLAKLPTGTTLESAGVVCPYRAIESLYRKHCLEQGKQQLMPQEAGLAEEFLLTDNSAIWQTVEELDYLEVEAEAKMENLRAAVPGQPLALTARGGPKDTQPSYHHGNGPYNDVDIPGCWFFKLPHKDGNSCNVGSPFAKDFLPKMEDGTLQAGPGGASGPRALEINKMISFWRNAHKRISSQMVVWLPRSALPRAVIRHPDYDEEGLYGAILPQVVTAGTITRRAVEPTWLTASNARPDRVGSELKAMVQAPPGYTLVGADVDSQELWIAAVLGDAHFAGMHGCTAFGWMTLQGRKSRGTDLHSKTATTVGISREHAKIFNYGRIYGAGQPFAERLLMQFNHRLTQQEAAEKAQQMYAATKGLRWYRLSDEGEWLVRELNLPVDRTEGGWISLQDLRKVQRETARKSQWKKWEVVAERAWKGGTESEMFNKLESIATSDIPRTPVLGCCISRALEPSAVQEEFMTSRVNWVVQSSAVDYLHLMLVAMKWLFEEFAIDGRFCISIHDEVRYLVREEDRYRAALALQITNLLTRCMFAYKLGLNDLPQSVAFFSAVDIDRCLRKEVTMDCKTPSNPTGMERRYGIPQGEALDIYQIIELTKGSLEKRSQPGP
T1 sequence (Q9UHN1 1-485 partner): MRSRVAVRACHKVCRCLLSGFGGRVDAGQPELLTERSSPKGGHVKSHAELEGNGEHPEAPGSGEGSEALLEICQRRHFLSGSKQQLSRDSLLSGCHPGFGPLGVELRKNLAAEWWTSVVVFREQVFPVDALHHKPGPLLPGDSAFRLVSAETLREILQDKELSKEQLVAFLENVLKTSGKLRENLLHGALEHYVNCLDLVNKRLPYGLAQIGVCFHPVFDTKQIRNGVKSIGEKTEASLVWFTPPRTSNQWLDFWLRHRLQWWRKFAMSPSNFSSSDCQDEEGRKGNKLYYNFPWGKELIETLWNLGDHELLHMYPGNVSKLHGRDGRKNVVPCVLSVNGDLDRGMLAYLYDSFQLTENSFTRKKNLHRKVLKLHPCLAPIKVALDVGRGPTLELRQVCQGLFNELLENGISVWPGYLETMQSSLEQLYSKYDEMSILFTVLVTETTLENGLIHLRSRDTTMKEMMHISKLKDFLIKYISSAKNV
Assay: DNA polymerization assay, wild type POLγ
Assay type: biochemical
Conditions: 0.1 μM dNTP, read-out: WT AC50 (μM) at 0.1 μM
Description: DNA Polymerization Assay to Monitor Effects on Human Wildtype POLγ and Four Disease-Causing Mutant Variants of Human POLγ.
The ability of small molecules to stimulate the polymerase activity of POLγ was analyzed in a quantitative fluorescence SYBR Green I assay with fluorescence intensity (FI) readout.
In the presence of dNTPs, wild type human POLγ and mutant derivatives thereof were incubated with single-stranded, circular M13mp18 ssDNA hybridized to a short DNA oligonucleotide that functions as a primer for initiation of DNA synthesis. POLγ and mutant derivatives thereof will extend the primer and use the M13mp18 molecule as a template to synthesize long stretches of double-stranded DNA. SYBR Green I, which is a double-stranded DNA-binding dye, was used to quantify formation of double-stranded DNA in the reaction. When bound to double-stranded DNA, SYBR Green I fluorescence increases by up to 100-fold.
The assay was performed in the 384-well plate format. Upon addition of compounds, changes in double-stranded DNA synthesis activity can be monitored by following effects on fluorescent intensity.
The reactions also contained the accessory POLγB subunit, and the human mitochondrial single-stranded DNA binding protein (mtSSB).
The DNA template mixture used in the assay contained 0.5 nM primed M13 mp18 ssDNA, 400 nM mtSSB, 0.1 mM Tris-HCl (pH 8.0), 0.1 mM dNTP, 10 mM MgCl2, 0.1 mg/mL BSA, 1 mM TCEP solution, and 0.02% Triton X-100. The DNA template mixture for the wild type protein contained either 100 μM dNTP, 1 μM dNTP, or 0.1 μM dNTP, designated in Table 2 as 100 μM, 1 μM, and 0.1 μM, respectfully.
Microplates with compounds (0.1 μL in each well) to be tested in the assay were prepared from 10 mM compound stocks in 100% DMSO, and equal amounts of DMSO without any compound were added to positive and negative control wells.
The protein mixture was dispensed (5 μL into each well) into compound plates and incubated at 37° C. for 15 minutes. After incubation, 5 μL of the DNA template mixture was dispensed into each well. The plates were then incubated at 37° C. for 2 hours.
During incubation, a combined stop buffer and detection reagent solution was prepared. The buffer contained 25 mM EDTA (pH 8.0), 0.02% Triton X-100, and SYBR Green I [Invitrogen] diluted 10,000× (for fluorescent readout). EDTA will stop the enzymatic reaction by chelating magnesium ions.

Row | AC50 [µM] | Compound
1 | 17 | Cc1cnc(-c2cc(NS(=O)(=O)c3cc(C)c(Cl)cc3C)ccc2C)s1 [Example 103, 4-chloro-2,5-dimethyl-N-(4-methyl-3-(5-methylthiazol-2-yl)phenyl)benzenesulfonamide]

Same assay, conditions: 100 μM dNTP, read-out: WT AC50 (μM) at 100 μM

Row | AC50 [µM] | Compound
2 | 3 | Cc1ccc(S(=O)(=O)Nc2csc(-c3ccccc3)n2)c(C)c1 [Example 123, 2,4-dimethyl-N-(2-phenylthiazol-4-yl)benzenesulfonamide]
3 | 1 | Cc1ccc(C)c(S(=O)(=O)Nc2cccc(C(=O)N3CCCCC3C#N)c2)c1 (stereo not drawn) [Example 2, N-(3-(2-cyanopiperidine-1-carbonyl)phenyl)-2,5-dimethylbenzenesulfonamide]
4 | > 100 | Cc1ccc(C)c(S(=O)(=O)Nc2cccc(C(=O)N3CCCCC3)c2)c1 [Example 3, 2,5-dimethyl-N-(3-(piperidine-1-carbonyl)phenyl)benzene sulfonamide]
5 | 6 | Cc1cc(S(=O)(=O)Nc2ccc3c(c2)CC(=O)N3)c(C)cc1Cl [Example 185, 4-chloro-2,5-dimethyl-N-(2-oxoindolin-5-yl)benzenesulfonamide]
6 | 4 | Cc1ccc(C)c(S(=O)(=O)Nc2cccc(C(=O)N3CCCC[C@@H]3C)c2)c1 [Example 6, (S)-2,5-dimethyl-N-(3-(2-methylpiperidine-1-carbonyl)phenyl)benzenesulfonamide]
7 | > 10 | Cc1cc(Cl)ccc1S(=O)(=O)Nc1cccc(C(=O)N2CCC[C@H]2C)c1 [Example 116, (R)-4-chloro-2-methyl-N-(3-(2-methylpyrrolidine-1-carbonyl)phenyl)benzenesulfonamide]
8 | > 10 | Cc1cc(S(=O)(=O)Nc2nc(-c3ccccc3)no2)c(C)cc1Cl [Example 143, 4-chloro-2,5-dimethyl-N-(3-phenyl-1,2,4-oxadiazol-5-yl)benzenesulfonamide]
9 | > 10 | Cc1cc(S(=O)(=O)Nc2cccc(-c3ncc(C(N)=O)s3)c2)c(C)cc1Cl [Example 92, 2-(3-((4-chloro-2,5-dimethylphenyl)sulfonamido)phenyl) thiazole-5-carboxamide]
10 | 1 | Cc1cc(S(=O)(=O)Nc2cc(F)cc(C(=O)N3CCC[C@H]3C)c2)c(C)cc1Cl [Example 13, (R)-4-chloro-N-(3-fluoro-5-(2-methylpyrrolidine-1-carbonyl)phenyl)-2,5-dimethylbenzenesulfonamide]
11 | > 100 | Cc1cc(NS(=O)(=O)c2cc(C)c(Cl)cc2C)cc(-c2ncc(C)s2)c1 [Example 110, 4-chloro-2,5-dimethyl-N-(3-methyl-5-(5-methylthiazol-2-yl)phenyl)benzenesulfonamide]

Second part, the compound before the results:

Row | Compound | AC50 [µM]
12 | Cc1cnc(-c2cc(NS(=O)(=O)c3cc(C)c(Cl)cc3C)ccc2C)s1 [Example 103, 4-chloro-2,5-dimethyl-N-(4-methyl-3-(5-methylthiazol-2-yl)phenyl)benzenesulfonamide] | 1
13 | Cc1cc(S(=O)(=O)Nc2cccc(-c3nccs3)c2)c(C)cc1Cl [Example 16, 4-chloro-2,5-dimethyl-N-(3-(thiazol-2-yl)phenyl)benzenesulfonamide] | 0.2
14 | (R)-2,5-dimethyl-N-(3-(3-methylmorpholine-4-carbonyl)phenyl)benzenesulfonamide [Example 1] | 2
15 | Cc1cc(S(=O)(=O)Nc2cccc(C(=O)N3CCCOC(C)(C)C3)c2)c(C)cc1Cl [Example 106, 4-chloro-N-(3-(2,2-dimethyl-1,4-oxazepane-4-carbonyl)phenyl)-2,5-dimethylbenzenesulfonamide] | 32
16 | Cc1cnc(-c2cc(NS(=O)(=O)c3cc(C)c(Cl)cc3C)ccc2Cl)s1 [Example 111, 4-chloro-N-(4-chloro-3-(5-methylthiazol-2-yl)phenyl)-2,5-dimethylbenzenesulfonamide] | 3
17 | Cc1cc(S(=O)(=O)Nc2cccc(C(=O)N(C(C)C)C3COC3)c2)c(C)cc1Cl [Example 112, 3-((4-chloro-2,5-dimethylphenyl)sulfonamido)-N-isopropyl-N-(oxetan-3-yl)benzamide] | 20
18 | Cc1cc(S(=O)(=O)Nc2csc(-c3ccccc3)n2)c(Cl)cc1F [Example 136, 2-chloro-4-fluoro-5-methyl-N-(2-phenylthiazol-4-yl)benzenesulfonamide] | 0.8
